The values that follow come from ChEMBL document CHEMBL1154224, “Spiropiperidine CCR5 antagonists” (Bioorg Med Chem Lett, 2009).

Data set [1] deals with C-C chemokine receptor type 5 (Homo sapiens, UniProt P51681). The data set can be described thus: Displacement of [125I]RANTES from human CCR5 receptor co-transfected with Galphai6 in CHO cells. The class given is cell-based. (Loss of bound radioactivity is the signal in a displacement assay; it reports binding, not function.)
A short description of data set [2]: Permeability from apical to basolateral side of the human 21 days cultured Caco-2 cells. The class given is ADME, cell-based. The conditions noted are these: read-out: permeability. On the technique in general: Caco-2 cells form a polarised layer with tight junctions and transporters.
For data set [3], the system named is Human immunodeficiency virus 1. Nature of the data set: Antiviral activity against recombinant HIV1 virus infected in human JC53BL cells after 3 days. The conditions noted are these: Human immunodeficiency virus 1, JC53BL, 72 h. The data set is classed as functional, organism-based.
Data set [4] can be described thus: Efflux ratio of permeability from basolateral to apical to apical to basolateral side in human 21 days cultured Caco-2 cells. The class given is ADME, cell-based.
Data set [5] can be described thus: (§1) Intrinsic clearance in human liver microsomes assessed per mg of protein. The conditions noted are these: liver microsomes. The class given is ADME, Microsome. Background: Liver microsomes are a subcellular fraction often used to study metabolism.
The nature of data set [6]: (§2) Intrinsic clearance in rat liver microsomes assessed per mg of protein. The data set is classed as ADME, Microsome. The conditions noted are these: liver microsomes.
The species entered for data set [7] is Homo sapiens. The data set can be described thus: Hepatic blood flow in human. The data set is classed as ADME, organism-based, Liver.
Data set [8] is described as follows: Oral bioavailability in rat at 10 mg/kg. The class given is ADME, organism-based. The following applies: in vivo.
Data set [9] deals with Liver microsomes. Described as §1. The following applies: microsomes. The data set is classed as ADME, Microsome.
Data set [10] has as its system Liver microsomes. The data set is described as §2. The data set is classed as ADME, Microsome. The following applies: microsomes.

C-C chemokine receptor type 5, sequence (P51681 whole entry): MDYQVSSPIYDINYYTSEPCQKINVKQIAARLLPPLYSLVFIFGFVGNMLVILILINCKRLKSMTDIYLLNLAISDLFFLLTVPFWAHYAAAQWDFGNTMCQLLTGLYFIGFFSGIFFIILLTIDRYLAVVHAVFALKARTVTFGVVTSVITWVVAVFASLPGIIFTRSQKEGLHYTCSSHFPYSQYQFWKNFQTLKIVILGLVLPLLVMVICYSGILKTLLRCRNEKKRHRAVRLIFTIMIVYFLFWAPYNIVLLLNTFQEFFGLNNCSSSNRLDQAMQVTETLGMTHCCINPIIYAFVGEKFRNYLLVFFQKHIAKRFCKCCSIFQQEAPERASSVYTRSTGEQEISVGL

Regarding `CCCCC1N(CC2CCCCC2)C(=O)OC12CCN(C1(C)CCN(C(=O)c3c(C)cccc3C)CC1)CC2` (centres undefined), the IC50 (in general, the concentration that gives 50% inhibition) in data set [1] is 10 nM; in data set [3], under 1.2 nM. Further, the Papp A→B in data set [2] worked out at 14 ×10⁻⁶ cm/s. For the same compound, the efflux ratio (usually a quotient of directional permeabilities that is used to spot active efflux) in data set [4] came to 0.4. Besides, the intrinsic metabolic clearance (microsomal CLint) – broadly, the rate of metabolic loss divided by the concentration – came to 526 µL/min/mg in data set [5] and 523 µL/min/mg in [6].
Consider `CCCCC1N(CC2CCCCC2)C(=O)OC12CCN(C1(C)CCN(C(=O)c3c(C)ncnc3C)CC1)CC2` (centres undefined), for which the figures for the IC50 in [1] and in data set [3] were 7 nM and 46 nM, respectively. The microsomal CLint in data set [5] was 162 µL/min/mg.
Turning to `CCCCC1N(CC2CCCCC2)C(=O)OC12CCN(C1CCN(C(=O)c3ccccc3C)CC1)CC2` (centres undefined), the half-maximal inhibitory concentration (IC50) was 100 nM in [1] and over 625 nM in [3].
Consider `CCCCC1N(CC2CCCC2)C(=O)OC12CCN(C1CCN(C(=O)c3c(C)cccc3C)CC1)CC2` (centres undefined), for which the 50% inhibitory concentration (IC50) in data set [1] is 18 nM; in [3] it was over 625 nM.
Take `CCCCC1CN(CC2CCCCC2)C(=O)OC12CCN(C1CCN(C(=O)c3c(C)ncnc3C)CC1)CC2` (centres undefined): the half-maximal inhibitory concentration (IC50) was found to be 68 nM in [1] and 31 nM in data set [3]. Also, the LBF in data set [7] is on record as 82%. Further, in [8], the bioavailability (commonly the share of a dose that reaches the circulation, judged against a reference dose that is usually intravenous) came to 43%. The clearance in data set [9] was 119 µL/min/mg; in data set [10], 80 µL/min/mg.
Regarding `CCCCC1CN(CC2CCOCC2)C(=O)OC12CCN(C1CCN(C(=O)c3c(C)cccc3C)CC1)CC2` (centres undefined), the half-maximal inhibitory concentration (IC50) turned out to be 89 nM in data set [1] and 24 nM in data set [3]. In [5], this compound returned a microsomal CLint of 164 µL/min/mg.
As for `CCCCC1CN(CC2CCOCC2)C(=O)OC12CCN(C1CCN(C(=O)c3c(C)ncnc3C)CC1)CC2` (centres undefined), the IC50 in [1] is 76 nM; in [3] it was 405 nM.
For `CCCCC1N(CC2CCOCC2)C(=O)OC12CCN(C1CCN(C(=O)c3c(C)cccc3C)CC1)CC2` (centres undefined) the same measures were 24 nM and over 625 nM.
On to `CCCC[C@@H]1CN(CC2CCOCC2)C(=O)OC12CCN(C1(C)CCN(C(=O)c3c(C)ncnc3C)CC1)CC2`, for which the concentration for half-maximal inhibition (IC50) in data set [1] is 100 nM; in data set [3], over 625 nM. In data set [5], this compound showed an intrinsic clearance (microsomal CLint) of 17 µL/min/mg.
For `CCCC[C@H]1CN(CC2CCCCO2)C(=O)OC12CCN(C1(C)CCN(C(=O)c3c(C)ccnc3C)CC1)CC2` (some centres undefined) the same measures were 10 nM, 55 nM and 53 µL/min/mg.
Regarding `CCCC[C@H]1CN(C2CCOCC2)C(=O)OC12CCN(C1(C)CCN(C(=O)c3c(C)ncnc3C)CC1)CC2`, the IC50 in data set [3] worked out at 84 nM.
For the compound `CCCCC1N(Cc2ccccc2)C(=O)OC12CCN(C1CCN(C(=O)c3c(C)cccc3C)CC1)CC2` (centres undefined), the IC50 in [1] was 144 nM; in data set [3], over 625 nM.
For `CCCC1N(CC2CCCCC2)C(=O)OC12CCN(C1CCN(C(=O)c3c(C)cccc3C)CC1)CC2` (centres undefined) the same measures were 300 nM and over 625 nM.
Turning to `CCCCC1N(CC2CCOCC2)C(=O)OC12CCN(C1(C)CCN(C(=O)c3c(C)ncnc3C)CC1)CC2` (centres undefined), the IC50 amounted to 58 nM in data set [1] and 375 nM in [3]. Also, the Papp A→B in [2] came out at 0.6 ×10⁻⁶ cm/s. In data set [4], the efflux ratio was determined as 31. Moreover, the intrinsic metabolic clearance (microsomal CLint) in [5] is 27 µL/min/mg.
Turning to `CCCC[C@H]1CN(CC2CCOCC2)C(=O)OC12CCN(C1(C)CCN(C(=O)c3c(C)cc[n+]([O-])c3C)CC1)CC2`, the figures for the IC50 in data set [1] and in data set [3] were 80 nM and 52 nM, respectively.
As for `CCCC[C@H]1CN(CC2CCOCC2)C(=O)OC12CCN(C1(C)CCN(C(=O)c3c(C)cc(=O)oc3C)CC1)CC2`, the values for the IC50 in [1] and in [3] were 12 nM and 3 nM, respectively. In addition, the microsomal CLint in data set [5] amounted to 36 µL/min/mg.
For `CCCC[C@H]1CN(CC2CCOCC2)C(=O)OC12CCN(C1(C)CCN(C(=O)c3c(C)nc(C(F)(F)F)nc3C)CC1)CC2` the same measures were 97 nM, 3 nM and 46 µL/min/mg.
In the case of `CCCC[C@H]1CN(CC2CCC(F)(F)CC2)C(=O)OC12CCN(C1(C)CCN(C(=O)c3c(C)ncnc3C)CC1)CC2`, the IC50 in data set [1] came out at 27 nM; in data set [3] it was 2 nM. The compound also came in with a microsomal CLint in [5] of 106 µL/min/mg.
With `CCCCC1CN(CC2CCOCC2)C(=O)OC12CCN(C1(C)CCN(C(=O)c3c(C)ncnc3C)CC1)CC2` (centres undefined), the IC50 in data set [1] turned out to be 25 nM; in data set [3], 14 nM. Further, the intrinsic metabolic clearance (microsomal CLint) in [5] stood at 17 µL/min/mg.
For `CCCCC1CN(CC2CCCCC2)C(=O)OC12CCN(C1CCN(C(=O)c3c(C)cccc3C)CC1)CC2` (centres undefined) the same measures were 30 nM, 29 nM and 307 µL/min/mg.
For the compound `CCCC[C@H]1CN(CCC2CCOCC2)C(=O)OC12CCN(C1(C)CCN(C(=O)c3c(C)ncnc3C)CC1)CC2`, in data set [3], the IC50 was determined as 8 nM. In [5], this compound gave a microsomal CLint of 37 µL/min/mg.
Take `CCCC[C@H]1CN(CC2CCOCC2)C(=O)OC12CCN(C1(C)CCN(C(=O)c3c(C)ccnc3C)CC1)CC2`: the IC50 was found to be 61 nM in [1] and 4 nM in [3]. This compound also had an intrinsic clearance (microsomal CLint) in data set [5] of 33 µL/min/mg.
For `CCCC[C@H]1CN(C)C(=O)OC12CCN(C1(C)CCN(C(=O)c3c(C)cc(C#N)nc3C)CC1)CC2` the same measures were 22 nM, 12 nM and 28 µL/min/mg.
Take `CCCCC1N(CC2CCCCC2)C(=O)OC12CCN(C1CCN(C(=O)c3c(C)cccc3C)CC1)CC2` (centres undefined): the IC50 in data set [1] amounted to 51 nM; in data set [3] it was 125 nM. Besides, the intrinsic metabolic clearance (microsomal CLint) amounted to 675 µL/min/mg in [5] and 2000 µL/min/mg in data set [6].
`CCCCC1CN(CC2CCOCC2)C(=O)OC12CCN(C1(C)CCN(C(=O)c3c(C)cc(C#N)nc3C)CC1)CC2` (racemic): the half-inhibitory concentration (IC50) in data set [1] worked out at 24 nM; in [3] it was 4 nM. In data set [5], this compound came in with a microsomal CLint of 42 µL/min/mg.
